Data as given in ChEMBL document CHEMBL1154622, “Structure-guided design of potent and selective pyrimidylpyrrole inhibitors of extracellular signal-regulated kinase (ERK) using conformational control” (J Med Chem, 2009).

What was measured:
[1] = Half life in mouse at 5 mg/kg, iv; format: ADME, organism-based; parameters: dose 5 mg/kg, route intravenous; conditions: in vivo
[2] = target: Serine/threonine-protein kinase Nek2 (Homo sapiens) (UniProt P51955); test: Inhibition of NEK2 at 1 uM
[3] = target: Tyrosine-protein kinase CSK (Homo sapiens) (UniProt P41240); test: Inhibition of CSK at 2 uM
Tyrosine-protein kinase CSK (Homo sapiens), sequence (P41240 2-450 limits assumed): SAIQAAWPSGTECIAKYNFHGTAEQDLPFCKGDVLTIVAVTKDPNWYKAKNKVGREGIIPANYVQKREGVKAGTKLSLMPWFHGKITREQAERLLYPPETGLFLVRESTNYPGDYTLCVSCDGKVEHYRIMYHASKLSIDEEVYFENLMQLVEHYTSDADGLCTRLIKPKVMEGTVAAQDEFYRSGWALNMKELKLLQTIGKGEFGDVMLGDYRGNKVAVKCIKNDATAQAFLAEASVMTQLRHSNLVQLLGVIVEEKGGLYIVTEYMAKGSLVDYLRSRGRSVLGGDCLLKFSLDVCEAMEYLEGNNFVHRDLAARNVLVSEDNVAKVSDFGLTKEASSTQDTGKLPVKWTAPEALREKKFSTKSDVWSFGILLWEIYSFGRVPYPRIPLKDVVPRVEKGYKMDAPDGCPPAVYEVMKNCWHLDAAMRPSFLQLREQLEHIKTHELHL

[4] = Half life in rat at 3 mg/kg, iv; format: ADME, organism-based; parameters: dose 3 mg/kg, route intravenous; conditions: in vivo
[5] = target: Tyrosine-protein kinase Fer (Homo sapiens) (UniProt P16591); test: Inhibition of FER at 1 uM
[6] = target: Macrophage colony-stimulating factor 1 receptor (Homo sapiens) (UniProt P07333); test: Inhibition of FMS at 1 uM
[7] = Plasma concentration in mouse at 5 mg/kg, iv after 8 hrs; format: ADME, organism-based; parameters: dose 5 mg/kg, route intravenous
[8] = target: Ribosomal protein S6 kinase alpha-2 (Homo sapiens) (UniProt Q15349); test: Inhibition of RSK3 at 1 uM
[9] = target: Vascular endothelial growth factor receptor 1 (Homo sapiens) (UniProt P17948); test: Inhibition of FLT-1 at 1 uM
[10] = target: Mitogen-activated protein kinase kinase kinase 8 (Homo sapiens, UniProt P41279); test: Inhibition of COT
[11] = target: Insulin receptor (Homo sapiens) (UniProt P06213); test: Inhibition of INSR at 1 uM
[12] = target: Serine/threonine-protein kinase D3 (Homo sapiens) (UniProt O94806); test: Inhibition of PRKD3 at 1 uM
[13] = target: Inhibitor of nuclear factor kappa-B kinase subunit beta (Homo sapiens) (UniProt O14920); conditions: 2 uM
Description: Inhibition of IKK-beta at 2 uM

[14] = target: Serine/threonine-protein kinase D2 (Homo sapiens) (UniProt Q9BZL6); test: Inhibition of PRKD2 at 1 uM
[15] = target: Serine/threonine-protein kinase Sgk2 (Homo sapiens) (UniProt Q9HBY8); test: Inhibition of SGK2 at 1 uM
[16] = target: Serine/threonine-protein kinase D1 (Homo sapiens) (UniProt Q15139); test: Inhibition of PRKD1 at 1 uM
[17] = target: RAC-beta serine/threonine-protein kinase (Homo sapiens) (UniProt P31751); test: Inhibition of AKT2 at 1 uM
[18] = target: Serine/threonine-protein kinase Chk1 (Homo sapiens) (UniProt O14757); test: Inhibition of CHK1 at 2 uM
[19] = target: Tyrosine-protein kinase ITK/TSK (Homo sapiens, UniProt Q08881); test: Inhibition of ITK
[20] = target: Mitogen-activated protein kinase 10 (Homo sapiens, UniProt P53779); test: Inhibition of JNK3
[21] = target: Dual specificity tyrosine-phosphorylation-regulated kinase 2 (Homo sapiens) (UniProt Q92630); test: Inhibition of DYRK2 at 1 uM
Dual specificity tyrosine-phosphorylation-regulated kinase 2 (Homo sapiens), sequence (Q92630 whole entry): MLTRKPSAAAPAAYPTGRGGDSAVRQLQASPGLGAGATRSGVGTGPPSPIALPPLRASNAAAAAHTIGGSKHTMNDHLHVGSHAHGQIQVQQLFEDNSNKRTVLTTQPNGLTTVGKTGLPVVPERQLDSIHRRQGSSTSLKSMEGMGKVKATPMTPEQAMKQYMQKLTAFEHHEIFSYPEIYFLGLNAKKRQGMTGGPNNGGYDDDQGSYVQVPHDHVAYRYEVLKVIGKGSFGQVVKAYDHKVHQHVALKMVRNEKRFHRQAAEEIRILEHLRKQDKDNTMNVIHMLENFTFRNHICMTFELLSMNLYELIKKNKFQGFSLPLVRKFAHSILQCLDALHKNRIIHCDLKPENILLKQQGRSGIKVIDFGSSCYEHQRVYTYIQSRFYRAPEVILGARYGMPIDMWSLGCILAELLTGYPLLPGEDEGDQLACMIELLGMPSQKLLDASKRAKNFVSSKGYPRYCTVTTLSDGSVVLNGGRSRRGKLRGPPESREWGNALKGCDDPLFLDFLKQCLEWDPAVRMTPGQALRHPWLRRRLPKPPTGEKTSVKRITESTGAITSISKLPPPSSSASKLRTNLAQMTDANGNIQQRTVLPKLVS

[22] = target: Serine/threonine-protein kinase DCLK2 (Homo sapiens) (UniProt Q8N568); test: Inhibition of DCAMKL2 at 1 uM
[23] = target: Casein kinase I isoform alpha (Homo sapiens) (UniProt P48729); test: Inhibition of CK1 at 2 uM
[24] = target: Tyrosine-protein kinase Mer (Homo sapiens) (UniProt Q12866); test: Inhibition of MER at 1 uM
[25] = target: Tyrosine-protein kinase JAK2 (Homo sapiens, UniProt O60674); test: Inhibition of JAK2
[26] = target: Dual specificity protein kinase CLK3 (Homo sapiens) (UniProt P49761); conditions: 1 uM
Description: Inhibition of CLK3 at 1 uM

[27] = target: Macrophage-stimulating protein receptor (Homo sapiens) (UniProt Q04912); test: Inhibition of RON at 1 uM
[28] = target: Phosphorylase b kinase gamma catalytic chain, liver/testis isoform (Homo sapiens) (UniProt P15735); test: Inhibition of PHKgamma2 at 1 uM
[29] = target: Tyrosine-protein kinase receptor TYRO3 (Homo sapiens) (UniProt Q06418); test: Inhibition of TYRO3 at 1 uM
[30] = target: [Pyruvate dehydrogenase (acetyl-transferring)] kinase isozyme 1, mitochondrial (Homo sapiens) (UniProt Q15118); test: Inhibition of PDK1 at 2 uM
[31] = target: Serine/threonine-protein kinase TBK1 (Homo sapiens) (UniProt Q9UHD2); test: Inhibition of TBK1 at 1 uM
[32] = target: Inhibitor of nuclear factor kappa-B kinase subunit alpha (Homo sapiens) (UniProt O15111); conditions: 2 uM
Description: Inhibition of IKKalpha at 2 uM

[33] = target: Vascular endothelial growth factor receptor 3 (Homo sapiens) (UniProt P35916); test: Inhibition of FLT-4 at 1 uM
[34] = AUC (0 to 8 hrs) in mouse at 5 mg/kg, iv; format: ADME, organism-based; parameters: time < 8 hr, dose 5 mg/kg, route intravenous; conditions: plasma
[35] = target: Cyclin-dependent kinase 1 (Homo sapiens) (UniProt P06493); test: Inhibition of CDK1 at 1 uM
Cyclin-dependent kinase 1 (Homo sapiens), sequence (P06493 whole entry, looked up): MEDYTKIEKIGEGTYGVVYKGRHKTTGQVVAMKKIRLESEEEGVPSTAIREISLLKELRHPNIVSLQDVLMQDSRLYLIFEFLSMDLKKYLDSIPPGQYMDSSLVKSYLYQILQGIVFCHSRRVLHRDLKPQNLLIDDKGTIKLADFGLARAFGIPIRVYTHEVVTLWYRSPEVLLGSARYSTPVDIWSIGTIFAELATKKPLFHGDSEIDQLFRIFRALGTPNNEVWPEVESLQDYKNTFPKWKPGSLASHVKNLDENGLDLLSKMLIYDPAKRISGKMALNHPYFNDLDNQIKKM

[36] = target: Protein kinase C eta type (Homo sapiens) (UniProt P24723); test: Inhibition of PKCeta at 1 uM
[37] = target: Proto-oncogene tyrosine-protein kinase receptor Ret (Homo sapiens) (UniProt P07949); test: Inhibition of RET at 1 uM
Proto-oncogene tyrosine-protein kinase receptor Ret (Homo sapiens), sequence (P07949 whole entry): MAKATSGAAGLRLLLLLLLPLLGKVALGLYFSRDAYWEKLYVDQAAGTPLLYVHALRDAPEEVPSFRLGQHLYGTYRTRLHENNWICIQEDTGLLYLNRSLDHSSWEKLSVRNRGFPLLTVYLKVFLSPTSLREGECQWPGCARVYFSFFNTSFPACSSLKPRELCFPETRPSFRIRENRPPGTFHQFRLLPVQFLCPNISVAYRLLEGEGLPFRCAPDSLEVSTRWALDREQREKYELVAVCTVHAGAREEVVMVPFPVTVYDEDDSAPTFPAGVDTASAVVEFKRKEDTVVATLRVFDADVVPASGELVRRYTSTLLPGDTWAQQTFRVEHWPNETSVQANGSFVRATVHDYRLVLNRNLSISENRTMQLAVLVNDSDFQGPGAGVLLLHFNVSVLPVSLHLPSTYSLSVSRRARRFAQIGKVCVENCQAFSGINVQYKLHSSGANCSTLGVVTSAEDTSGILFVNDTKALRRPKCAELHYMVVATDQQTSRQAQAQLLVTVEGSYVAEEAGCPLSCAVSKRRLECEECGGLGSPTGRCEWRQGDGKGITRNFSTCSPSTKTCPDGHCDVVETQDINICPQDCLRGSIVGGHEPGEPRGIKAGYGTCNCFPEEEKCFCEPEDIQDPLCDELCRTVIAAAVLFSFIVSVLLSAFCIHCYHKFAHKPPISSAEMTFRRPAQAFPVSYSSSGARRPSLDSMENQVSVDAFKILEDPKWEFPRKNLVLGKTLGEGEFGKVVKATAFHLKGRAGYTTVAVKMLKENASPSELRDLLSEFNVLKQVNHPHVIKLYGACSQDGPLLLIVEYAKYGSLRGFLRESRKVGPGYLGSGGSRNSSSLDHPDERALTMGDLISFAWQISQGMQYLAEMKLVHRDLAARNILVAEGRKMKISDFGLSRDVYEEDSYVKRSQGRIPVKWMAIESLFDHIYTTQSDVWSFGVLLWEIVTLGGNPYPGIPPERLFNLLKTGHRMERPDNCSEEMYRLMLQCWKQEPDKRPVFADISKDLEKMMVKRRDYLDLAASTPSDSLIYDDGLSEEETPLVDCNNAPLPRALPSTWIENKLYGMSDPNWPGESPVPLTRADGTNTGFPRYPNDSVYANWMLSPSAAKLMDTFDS

[38] = target: Serine/threonine-protein kinase Sgk1 (Homo sapiens, UniProt O00141); test: Inhibition of SGK1
[39] = target: Serine/threonine-protein kinase PAK 3 (Homo sapiens) (UniProt O75914); test: Inhibition of PAK3 at 1 uM
[40] = target: Calcium/calmodulin-dependent protein kinase type II subunit alpha (Homo sapiens) (UniProt Q9UQM7); test: Inhibition of CAMK2 at 2 uM
[41] = target: Inhibitor of nuclear factor kappa-B kinase subunit epsilon (Homo sapiens, UniProt Q14164); test: Inhibition of IKKi
[42] = target: Ephrin type-B receptor 4 (Homo sapiens) (UniProt P54760); test: Inhibition of EPH-B4 at 1 uM
[43] = target: Ribosomal protein S6 kinase beta-1 (Homo sapiens) (UniProt P23443); test: Inhibition of P70S6K at 2 uM
Ribosomal protein S6 kinase beta-1 (Homo sapiens), sequence (P23443 whole entry, looked up): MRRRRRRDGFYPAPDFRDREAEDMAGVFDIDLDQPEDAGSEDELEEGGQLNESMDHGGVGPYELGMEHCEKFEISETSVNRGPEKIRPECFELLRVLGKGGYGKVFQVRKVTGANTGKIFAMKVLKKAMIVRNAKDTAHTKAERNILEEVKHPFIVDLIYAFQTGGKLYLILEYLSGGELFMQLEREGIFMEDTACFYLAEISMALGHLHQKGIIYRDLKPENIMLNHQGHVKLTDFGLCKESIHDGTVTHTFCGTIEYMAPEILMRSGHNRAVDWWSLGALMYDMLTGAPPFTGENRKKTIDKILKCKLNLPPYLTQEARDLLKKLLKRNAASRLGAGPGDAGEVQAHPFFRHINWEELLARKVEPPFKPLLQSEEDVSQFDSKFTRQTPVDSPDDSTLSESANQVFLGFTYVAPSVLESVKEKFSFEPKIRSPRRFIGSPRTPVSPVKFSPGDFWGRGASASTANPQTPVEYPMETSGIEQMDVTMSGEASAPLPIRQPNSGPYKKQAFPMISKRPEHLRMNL

[44] = target: Ribosomal protein S6 kinase alpha-6 (Homo sapiens) (UniProt Q9UK32); test: Inhibition of RSK4 at 1 uM
Ribosomal protein S6 kinase alpha-6 (Homo sapiens), sequence (Q9UK32 whole entry): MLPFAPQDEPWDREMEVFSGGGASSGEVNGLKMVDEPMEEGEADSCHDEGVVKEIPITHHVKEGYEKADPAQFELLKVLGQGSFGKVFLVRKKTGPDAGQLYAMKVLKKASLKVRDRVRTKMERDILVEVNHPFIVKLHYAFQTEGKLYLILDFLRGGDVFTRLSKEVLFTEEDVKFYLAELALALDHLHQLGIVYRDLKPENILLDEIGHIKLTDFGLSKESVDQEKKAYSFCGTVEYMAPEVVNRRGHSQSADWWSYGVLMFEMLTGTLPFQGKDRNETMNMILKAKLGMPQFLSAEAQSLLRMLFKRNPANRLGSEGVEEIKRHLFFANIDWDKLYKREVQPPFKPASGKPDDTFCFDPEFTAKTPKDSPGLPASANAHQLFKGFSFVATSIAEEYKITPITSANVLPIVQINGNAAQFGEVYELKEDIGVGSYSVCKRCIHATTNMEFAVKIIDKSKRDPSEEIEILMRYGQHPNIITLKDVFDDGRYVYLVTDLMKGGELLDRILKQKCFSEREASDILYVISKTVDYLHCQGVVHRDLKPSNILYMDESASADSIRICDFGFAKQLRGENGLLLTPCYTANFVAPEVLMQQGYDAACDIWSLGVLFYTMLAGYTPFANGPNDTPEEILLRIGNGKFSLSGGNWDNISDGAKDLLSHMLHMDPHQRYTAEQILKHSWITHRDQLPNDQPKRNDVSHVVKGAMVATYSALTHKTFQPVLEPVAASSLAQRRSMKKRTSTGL

[45] = target: Serine/threonine-protein kinase MARK2 (Homo sapiens) (UniProt Q7KZI7); test: Inhibition of PAR-1Balpha at 1 uM
[46] = Plasma concentration in mouse at 5 mg/kg, iv after 4 hrs; format: ADME, organism-based; parameters: dose 5 mg/kg, route intravenous
[47] = target: Serine/threonine-protein kinase Sgk3 (Homo sapiens) (UniProt Q96BR1); test: Inhibition of SGK3 at 1 uM
[48] = target: Tyrosine-protein kinase ABL1 (Homo sapiens) (UniProt P00519); test: Inhibition of ABL1 at 1 uM
Tyrosine-protein kinase ABL1 (Homo sapiens), sequence (P00519 whole entry): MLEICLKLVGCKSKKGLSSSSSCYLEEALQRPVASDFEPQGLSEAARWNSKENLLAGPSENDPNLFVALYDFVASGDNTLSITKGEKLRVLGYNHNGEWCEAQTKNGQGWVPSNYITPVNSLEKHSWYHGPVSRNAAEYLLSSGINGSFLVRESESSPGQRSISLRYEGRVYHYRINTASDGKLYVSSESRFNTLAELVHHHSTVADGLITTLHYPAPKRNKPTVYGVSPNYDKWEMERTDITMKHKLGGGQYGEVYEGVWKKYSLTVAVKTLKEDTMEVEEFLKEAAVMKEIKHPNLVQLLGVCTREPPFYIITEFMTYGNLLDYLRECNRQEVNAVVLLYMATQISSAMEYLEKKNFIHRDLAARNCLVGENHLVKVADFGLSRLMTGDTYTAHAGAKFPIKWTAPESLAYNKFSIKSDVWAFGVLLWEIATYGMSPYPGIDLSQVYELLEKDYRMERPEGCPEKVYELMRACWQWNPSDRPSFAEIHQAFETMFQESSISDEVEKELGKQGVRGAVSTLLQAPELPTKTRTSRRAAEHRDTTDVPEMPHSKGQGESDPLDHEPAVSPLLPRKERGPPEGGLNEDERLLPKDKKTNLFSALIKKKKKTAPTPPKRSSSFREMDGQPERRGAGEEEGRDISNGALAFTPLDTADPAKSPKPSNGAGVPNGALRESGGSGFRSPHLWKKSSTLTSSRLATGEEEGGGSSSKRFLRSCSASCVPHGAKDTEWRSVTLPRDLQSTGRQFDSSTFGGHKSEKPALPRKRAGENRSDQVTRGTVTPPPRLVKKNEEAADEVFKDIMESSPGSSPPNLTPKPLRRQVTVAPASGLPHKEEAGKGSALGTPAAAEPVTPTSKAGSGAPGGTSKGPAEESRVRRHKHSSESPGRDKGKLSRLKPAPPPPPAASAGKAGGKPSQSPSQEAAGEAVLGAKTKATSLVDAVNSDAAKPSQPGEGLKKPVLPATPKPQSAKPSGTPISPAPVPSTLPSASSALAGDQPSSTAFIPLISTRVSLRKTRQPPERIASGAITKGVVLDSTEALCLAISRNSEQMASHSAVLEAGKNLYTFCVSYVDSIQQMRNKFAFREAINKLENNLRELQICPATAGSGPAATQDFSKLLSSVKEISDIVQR

[49] = target: Serine/threonine-protein kinase Nek1 (Homo sapiens) (UniProt Q96PY6); test: Inhibition of NEK1 at 1 uM
[50] = target: Calcium/calmodulin-dependent protein kinase type IV (Homo sapiens) (UniProt Q16566); test: Inhibition of CAMK4 at 2 uM

Cc1cnc(Nc2ccc(F)cc2Cl)nc1-c1c[nH]c(C(=O)N[C@H](CO)c2cccc(Cl)c2)c1
half-life [1]: 1.6 h | inhibition [2]: 3% | inhibition [3]: 0% | half-life [4]: 3.2 h | inhibition [5]: 3% | inhibition [6]: 6% | concentration at 8 h [7]: 0.017 µg/mL | inhibition [8]: 7% | inhibition [9]: 0% | Ki [10]: > 4 µM | inhibition [11]: 4% | inhibition [12]: 21% | inhibition [13]: 8% | inhibition [14]: 50% | inhibition [15]: 41% | inhibition [16]: 43% | inhibition [17]: 0% | inhibition [18]: 40% | Ki [19]: > 4 µM | Ki [20]: 1.4 µM | inhibition [21]: 3% | inhibition [22]: 1% | inhibition [23]: 25% | inhibition [24]: 9% | Ki [25]: > 4 µM | inhibition [26]: 9% | inhibition [27]: 1% | inhibition [28]: 4% | inhibition [29]: 0% | inhibition [30]: 10% | inhibition [31]: 3% | inhibition [32]: 0% | inhibition [33]: 8% | AUC(0-t) at 8 h [34]: 1.6 µg·h/mL | inhibition [35]: 7% | inhibition [36]: 2% | inhibition [37]: 3% | Ki [38]: > 10 µM | inhibition [39]: 3% | inhibition [40]: 1% | Ki [41]: > 5 µM | inhibition [42]: 0% | inhibition [43]: 18% | inhibition [44]: 11% | inhibition [45]: 5% | concentration at 4 h [46]: 0.079 µg/mL | inhibition [47]: 2% | inhibition [48]: 3% | inhibition [49]: 6% | inhibition [50]: 0%
